Tests used:
PhdC [1] = target: T1, PhdC (Mycolicibacterium fortuitum, UniProt A0A0N9XAG5); assay: differential scanning fluorimetry (SUPR-DSF); Tm of apo to Tm of FMN-bound; format: binding; details: 100 mM KPi, pH 7.5; ramp 1°C/min
T1 construct: gene XA26_16660; homodimer, site at dimer interface
T1 sequence (A0A0N9XAG5 2-155): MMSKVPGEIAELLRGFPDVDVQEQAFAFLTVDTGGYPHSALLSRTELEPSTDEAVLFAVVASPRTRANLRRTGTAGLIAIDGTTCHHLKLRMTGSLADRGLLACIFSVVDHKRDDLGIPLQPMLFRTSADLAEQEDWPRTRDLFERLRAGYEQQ

PhdC [2] = target: T1, PhdC; assay: isothermal titration calorimetry; format: binding

For Cc1cc2nc3c(=O)[nH]c(=O)nc-3n(C[C@H](O)[C@H](O)[C@H](O)COP(=O)(O)O)c2cc1C [FMN], which Tm (PhdC [1]) is on record?
The Tm was 63.6 to 66.5 °C.

What about the Kd (PhdC [2]) of the same molecule?
Its Kd is 17.8 ± 0.26 µM.

From paper PMC13040415, “Structure and Mechanism of PhdC, a Prenylated‐Flavin Maturase” (Proteins, 2025)
